Measured values as given in patent US20100297256A1, “METHODS AND COMPOSITIONS FOR INHIBITING INTEGRINS USING TELLURIUM-CONTAINING COMPOUNDS” (priority 2007, published 2010).

How the values were obtained:
[1] = biological target: T1, VLA-4 (Homo sapiens, UniProt P13612); test: Western blot analysis of VLA-4 thiols; assay type: cell-based; conditions: U937 cultured on fibronectin
T1 construct: free thiols are present on the integrin VLA-4 in leukemic cells; endogenous in cells; host or cells: U937 leukemic cells
Protocol: In order to confirm that free thiols are present on the integrin VLA-4 in leukemic cells, and that these are blocked by AS101, U937 leukemic cells cultured on fibronectin or BSA were treated with BMCC (1-biotinamido-4-(4′-[maleimidoethylcyclohexane]-carboxamido)butane), a thiol blocker linked to biotin. Some cultures were treated with AS101. The α and β chains of the VLA-4 (α4β1 integrin) were then immunoprecipitated from the treated cells using either anti-α4 or anti-β1 antibodies and blotted with anti-biotin antibody. The presence of free thiols was indicated by bands observed by anti-biotin blotting. The presence of α4 and β1 chains was determined by blotting with anti-α4 and anti-β1 antibodies.

[2] = tested on: West Nile Virus (WNV); test: Western blot analysis of WNV protein synthesis (WNV-E protein); assay type: cell-based; conditions: Vero cells
Protocol: Vero cells grown in 6-well plates (2×10^5 cells/well) were harvested and total cell extracts were prepared by suspension in 50 μl of ice-cold lysis buffer containing 50 mM Tris (pH 8.0), 150 mM NaCl, 1% NP-40, 0.1% SDS, 5 mM EDTA, 0.2 mM PMSF, 50 mM NaF, […] sodium vanadate, 5 mg/ml aprotinin and 5 mg/ml leupeptin. Cell lysates were boiled for 5 minutes and electrophoresed on 8% SDS-polyacrylamide gel, and were then transferred to a nitrocellulose membrane which was then incubated consecutively with a monoclonal antibody against the WNV envelope (WNV-E) protein and an anti-β-actin or anti-tubulin monoclonal antibody. The Nitrocellulose membranes were developed using horseradish peroxidase-conjugated secondary antibodies and the ECL detection system (Pierce, Rockford, Ill.). Quantitative evaluation of E protein calibrated against tubulin or β-actin was done by scanning and analysis using the Image-J program (www.//rsb.info.nih.gov/ij).

[3] = tested on: αVβ3 integrin; test: Anti-αVβ3 integrin antibody binding assay; assay type: cell-based
Protocol: An anti-αVβ3 integrin mediated cell adhesion kit (Millipore [Chemicon], Temecula, Calif.) was used to determine cells attachment to anti-αVβ3 integrin antibody, in the presence or absence of AS101. Briefly, Vero or BGM cells were mixed with PBS or with AS101 (1-10 μg/ml) and were added to anti-αVβ3 integrin coated 96-well plates, and to a control 96-well plate (containing anti-mouse IgG) in triplicate. The plates were incubated at 37° C., 5% CO2, for 2 hours, and the cells were then stained and extracted according to the kit instructions, using the staining solution and extraction buffer supplied with the kit. Cell concentration was measured by a spectrophotometer at 540 nm.

[4] = tested on: West Nile Virus (WNV); test: West Nile Virus (WNV) cytopathic effect assay; assay type: cell-based; conditions: Vero cells
Protocol: Attached cells were washed with PBS without Ca^+2/Mg^+2. 100 μl of 0.2% crystal violet in 20% methanol was thereafter added and the cells were incubated for 10 minutes at room temperature. At the end of incubation time, cells were washed twice with double-distilled water and 100 μl of 10% SDS was added. Dye bound to the cell is released by SDS and the absorption by the dye is measured by colorimetry at 570 nm. The amount of stained cells is then considered to be proportional to the measured absorption by the dye
Vero cells were seeded at the density of 2×10^4 cells/well in 96-well plates, 20 hours before infection. The cells were treated with PBS or with various concentrations of AS101 before (1 hour or 5-10 minutes), or after (1 hour or 24 hours) virus inoculation. WNV at MOI (multiplicity of infection) of 0.005 PFU (plaque forming units) per cell was added to the cells and allowed undergo absorption for 1 hour at 37° C. The medium was removed and the cells were washed twice with PBS and overlaid with fresh medium. Cells were then incubated at 37° C. with 5% CO2 for 3-5 days. The development of a cytopathic effect was monitored by light microscopy.

[5] = tested on: West Nile Virus (WNV); test: WNV plaque assay; assay type: cell-based; conditions: Vero cells, added 1 hour before inoculation
Protocol: Vero cells were seeded at a density of 1×10^6 cells in 10 cm dishes 20 hours prior to infection. WNV (5×10^3 PFU/ml, MOI=0.005 PFU/cell) was added to the cultures, and the plates were incubated for 1 hour at 37° C. with 5% CO2. After incubation, the medium was removed and the cells were washed 6 times with PBS and overlaid with fresh EMEM medium containing 4% FCS (fetal calf serum) and 1% (w/v) agar. Cells were then incubated at 37° C. with 5% CO2 for 3 days until plaques appeared, and then fixed and stained with a solution of 0.5% crystal violet in a mixture of formalin (1% v/v) and ethanol (1.65% v/v). Plaques were counted over a light box after removal of the agar overlay.

[6] = tested on: leukemic cells from AML patients; test: Sensitization of leukemic cells from AML patients to chemotherapy; assay type: cell-based, human
Protocol: 2×10^4 per 200 μl cells were seeded in 96-microwell flat bottom plates. After 24 hours, the tested compound(s) (e.g., AS101, ARA-C, DTNB, anti-VLA-4 antibody) was added, and the cells were incubated overnight with the tested compound(s). The XTT solution was then added and the cells were incubated for 4 hours at 37° C. Cell viability was than evaluated by measuring absorbance at 450 nm using a Microplate Spectrophotometer (Spectra MAX Plus, Molecular Devices).
Bone marrow samples from patients diagnosed, with AML, but not yet treated, were obtained and grown in vitro. The leukemic cells obtained therefrom were tested for levels of VLA-4 and VLA-5 via fluorescence based cytometry, using FITC (fluorescein isothiocyanate)-conjugated anti-VLA-4 and anti-VLA-5 antibodies, using standard procedures. The cells were grown on both fibronectin and BSA, and the effect of AS101 on chemotherapy resistance was measured.

T1 sequence (P13612 34-1032): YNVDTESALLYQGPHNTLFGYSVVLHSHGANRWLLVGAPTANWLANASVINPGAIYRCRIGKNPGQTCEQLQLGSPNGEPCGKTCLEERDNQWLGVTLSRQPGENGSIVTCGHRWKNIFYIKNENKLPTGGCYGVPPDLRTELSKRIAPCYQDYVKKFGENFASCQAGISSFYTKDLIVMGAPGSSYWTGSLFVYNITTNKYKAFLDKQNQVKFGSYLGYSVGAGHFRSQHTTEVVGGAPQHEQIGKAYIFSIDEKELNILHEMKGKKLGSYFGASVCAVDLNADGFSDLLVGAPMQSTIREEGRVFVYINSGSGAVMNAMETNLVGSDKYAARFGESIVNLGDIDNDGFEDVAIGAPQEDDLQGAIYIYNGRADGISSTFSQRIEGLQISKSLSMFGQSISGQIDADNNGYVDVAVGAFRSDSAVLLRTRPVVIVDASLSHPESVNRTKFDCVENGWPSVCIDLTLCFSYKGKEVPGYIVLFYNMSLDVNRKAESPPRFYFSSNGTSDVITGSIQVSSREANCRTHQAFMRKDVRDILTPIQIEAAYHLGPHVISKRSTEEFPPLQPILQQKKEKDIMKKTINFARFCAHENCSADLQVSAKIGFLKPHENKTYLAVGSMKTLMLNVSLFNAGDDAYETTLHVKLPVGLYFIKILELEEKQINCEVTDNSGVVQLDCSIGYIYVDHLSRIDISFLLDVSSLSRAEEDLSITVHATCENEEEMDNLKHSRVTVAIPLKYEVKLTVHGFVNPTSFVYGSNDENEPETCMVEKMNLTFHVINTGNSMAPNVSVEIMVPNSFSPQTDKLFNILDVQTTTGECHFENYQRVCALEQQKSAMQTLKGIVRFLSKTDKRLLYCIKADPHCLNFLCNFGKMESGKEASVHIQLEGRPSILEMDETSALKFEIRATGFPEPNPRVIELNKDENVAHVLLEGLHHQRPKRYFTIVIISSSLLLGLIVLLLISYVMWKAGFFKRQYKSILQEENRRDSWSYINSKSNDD
T1 sequence (P05556 21-798 partner): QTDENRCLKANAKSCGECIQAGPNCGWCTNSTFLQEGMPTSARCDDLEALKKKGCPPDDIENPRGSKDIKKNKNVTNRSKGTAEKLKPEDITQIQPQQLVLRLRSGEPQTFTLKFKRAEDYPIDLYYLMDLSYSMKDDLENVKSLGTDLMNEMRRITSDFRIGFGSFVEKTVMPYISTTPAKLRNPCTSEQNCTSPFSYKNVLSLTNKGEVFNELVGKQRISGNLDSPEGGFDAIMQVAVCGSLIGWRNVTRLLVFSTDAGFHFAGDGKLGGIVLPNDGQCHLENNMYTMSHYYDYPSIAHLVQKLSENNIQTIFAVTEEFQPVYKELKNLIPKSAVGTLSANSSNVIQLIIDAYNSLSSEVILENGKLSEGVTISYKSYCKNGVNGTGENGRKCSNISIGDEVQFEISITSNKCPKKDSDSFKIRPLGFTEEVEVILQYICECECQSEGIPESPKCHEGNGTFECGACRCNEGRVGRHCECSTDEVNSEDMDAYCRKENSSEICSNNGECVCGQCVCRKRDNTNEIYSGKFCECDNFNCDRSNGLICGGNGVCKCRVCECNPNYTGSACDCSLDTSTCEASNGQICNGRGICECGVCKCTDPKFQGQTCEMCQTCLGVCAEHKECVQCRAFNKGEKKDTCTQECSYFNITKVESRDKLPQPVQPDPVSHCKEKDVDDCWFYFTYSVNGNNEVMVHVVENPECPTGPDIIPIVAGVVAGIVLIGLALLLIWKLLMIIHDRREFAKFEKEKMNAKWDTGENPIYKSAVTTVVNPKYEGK

Structure (SMILES): Cl[TeH]1(Cl)(Cl)OCCO1 [AS101, ammonium trichloro(dioxyethylene-O,O′)tellurate]
- free thiols on the α chain of VLA-4 (BMCC labelling) [1]: eliminated these free thiols
- level of cell-bound WNV-E protein (virus attachment) ([2]; 5 μg/ml, 5 and 15 minutes after virus adsorption): marked reduced the level of WNV-E protein
- inhibition of virus protein (WNV-E) expression vs untreated cells ([2]; 2 and 5 μg/ml, 8 hours after infection): 2-3 fold
- inhibition of binding of anti-αVβ3 integrin antibody to cells ([3]; BGM cells, 10 μg/ml, data not shown): 64%
- binding of anti-αVβ3 integrin antibody to cells ([3]; Vero cells, 1-10 μg/ml): inhibited the binding of anti-αVβ3 integrin antibody to Vero cells in a dose-dependent manner
- WNV cytopathic effect ([4]; 2.5 μg/ml added 5-10 minutes before inoculation): no cytopathic effect is observed
- viability of WNV-infected cells (crystal violet) ([4]; 72 hours after infection): dose-dependent protective effect
- WNV cytopathic effect ([4]; added 1 hour or 24 hours after inoculation, data not shown): did not exhibit such an inhibitory effect
- WNV-induced plaque formation [5]: dose-dependent protective effect against the plaque formation
- inhibition of resistance to ARA-C ([6]; 8 AML patients with high VLA-4 levels, on fibronectin, 0.5 or 1 μg/ml AS101): inhibited the resistance to ARA-C of high-VLA-4 cells on fibronectin in a dose-dependent manner
- inhibition of resistance to ARA-C ([6]; Patient B, high VLA-4, on fibronectin): inhibited the resistance to ARA-C of high-VLA-4 cells on fibronectin in a dose-dependent manner
- sensitization to ARA-C, combination of AS101 and DTNB vs either alone ([6]; high-VLA-4 cells on fibronectin): did not sensitize high-VLA-4 cells grown on fibronectin to a greater degree than did either AS101 or DTNB alone
- effect on viability of cells exposed to ARA-C, alone or in combination ([6]; low VLA-4 leukemic cells, fibronectin-coated plates): no effect either alone or in combination
